Numbered stars: 1 amine (or outer) side, 2 acyl side, 3 side chain; on linkers, the order of the positions; unused ones are H or OH. Bridge positions count the residues as written; N and C are the ends. Square brackets hold non-standard residues; d marks the D form. Peptide text beside a SMILES is read from it. * marks the point of attachment. X4 = NC(=O)C[C@@H](O)[C@@H](N[*:1])C(=O)[*:2]; d(aThr) = C[C@@H](O)[C@@H](N)C(=O)O; NMeF = CN[C@@H](Cc1ccccc1)C(=O)O; X3 = CC[C@@H](C)CCCCCCCCCCC(=O)*; dNMeN = CN[C@H](CC(N)=O)C(=O)O
What was measured:
[1] = system: ROS production induced by flg22; assay: Reactive Oxygen Species (ROS) burst assay with wheat leaf discs; conditions: Triticum aestivum, foliar, read-out: Fold change (peak ROS)
Botryotinia fuckeliana = assay: Liquid culture, Botryotinia fuckeliana (Botrytis cinerea), Gray Mould, 3-4 days; assay type: cell-based; conditions: Table 3
Procedure: (§1) Mycelia fragments or conidia suspensions of a fungus, prepared either freshly from liquid cultures of the fungus or from cryogenic storage, were directly mixed into nutrient broth.
(§2) A stock solution for compound of Formula I(a) and Formula I(b) was produced in DMSO (max. 10 mg/ml), which was diluted with water plus 0.025% Tween®20 to produce a 10× concentrated sample and 10 μl of this solution was pipetted into a microtiter plate (96-well format). The nutrient broth containing the fungal spores/mycelia fragments was then added to give an end concentration of the tested compound. The test plates were incubated in the dark at 24 °C and 96% rh. The inhibition of fungal growth was determined photometrically after 2-7 days, depending on the pathosystem, and percent antifungal activity relative to the untreated check was calculated.
(§3) The effect of the test compound (Formula I(a), I(b) and Lipopeptin A) was tested against the following fungi under the conditions as outlined above and specifically herein below:
Botryotinia fuckeliana (Botrytis cinerea)/Liquid Culture (Gray Mould)
Conidia of the fungus from cryogenic storage were directly mixed into nutrient broth (Vogels broth). The inhibition of growth is determined photometrically 3-4 days after application.

Glomerella lagenarium = assay: Liquid culture, Glomerella lagenarium (Colletotrichum lagenarium), Anthracnose, 3-4 days; assay type: cell-based; conditions: Table 3
Procedure: as §1, §2, §3
Glomerella lagenarium (Colletotrichum lagenarium)/Liquid Culture (Anthracnose)
Conidia of the fungus from cryogenic storage were directly mixed into nutrient broth (PDB potato dextrose broth). The inhibition of growth was measured photometrically 3-4 days after application.

Mycosphaerella arachidis = assay: Liquid culture, Mycosphaerella arachidis (Cercospora arachidicola), early leaf spot, 4-5 days; assay type: cell-based; conditions: Table 3
Procedure: as §1, §2, §3
Mycosphaerella arachidis (Cercospora arachidicola)/liquid culture (early leaf spot) Conidia of the fungus from cryogenic storage were directly mixed into nutrient broth (PDB potato dextrose broth). The inhibition of growth was determined photometrically 4-5 days after application.

Zymoseptoria tritici = assay: Liquid culture, Zymoseptoria tritici (Septoria tritici), Septoria leaf blotch, 4-5 days; assay type: cell-based; conditions: Table 3
Procedure: as §1, §2, §3
Zymoseptoria tritici (Septoria tritici)/liquid culture (Septoria leaf blotch) Conidia of the fungus from cryogenic storage were directly mixed into nutrient broth (PDB potato dextrose broth). The inhibition of growth was determined photometrically 4-5 days after application.

[2] = system: Puccinia recondita f. sp. tritici; assay: Leaf disc/segment test on wheat, Puccinia recondita f. sp. tritici (Brown Rust), 7-9 days after application; assay type: in vivo; conditions: Table 5
Procedure: (§4) Leaf disks or leaf segments of various plant species were cut from plants grown in the greenhouse. The cut leaf disks, or segments were placed in multiwell plates (24-well format) onto water agar. The leaf disks were sprayed with a test solution before inoculation with the fungal spores. Compounds to be tested were prepared as DMSO solutions (max. 10 mg/ml) which were diluted to the appropriate concentration with water plus 0.025% Tween® 20 just before spraying. The inoculated leaf disks or segments were incubated under defined conditions (temperature, relative humidity, light, etc.) according to the respective test system. A single evaluation of disease level was carried out by visual evaluation 3-9 days days after inoculation, depending on the pathosystem as indicated below. Percent disease control relative to the untreated check leaf disks or segments was then calculated.
Puccinia recondita f. Sp. Tritici/Wheat/Leaf Disc (Brown Rust)
Wheat leaf segments cv. Kanzler were placed on agar in multiwell plates (24-well format) and sprayed with the formulated test compound diluted in water. The leaf disks were inoculated with a spore suspension of the fungus 1 day after application. The inoculated leaf segments were incubated at 19 °C and 75% rh under a light regime of 12 h light/12 h darkness in a climate cabinet and the activity of a compound was assessed as percent disease control compared to untreated when an appropriate level of disease damage appears in untreated check leaf segments (7-9 days after application).

Phaeosphaeria nodorum = assay: Leaf disc test on wheat, Phaeosphaeria nodorum (Glume Blotch), 5-7 days after application; assay type: in vivo, Phaeosphaeria nodorum (Septoria nodorum) on wheat; conditions: Table 5
Procedure: as §4
Phaeosphaeria Nodorum (Septoria nodorum)/Wheat/Leaf Disc (Glume Blotch)
Wheat leaf segments cv. Kanzler were placed on agar in a multiwell plate (24-well format) and sprayed with the formulated test compound diluted in water. The leaf disks were inoculated with a spore suspension of the fungus 2 days after application. The inoculated test leaf disks were incubated at 20 °C and 75% rh under a light regime of 12 h light/12 h darkness in a climate cabinet and the activity of a compound was assessed as percent disease control compared to untreated when an appropriate level of disease damage appears in untreated check leaf disks (5-7 days after application)

Pyrenophora teres = assay: Leaf disc preventative test on barley, Pyrenophora teres (Net Blotch), 5-7 days after application; assay type: in vivo; conditions: Table 5
Procedure: as §4
Pyrenophora teres/Barley/Leaf Disc Preventative (Net Blotch)
Barley leaf segments cv. Hasso were placed on agar in a multiwell plate (24-well format) and sprayed with the formulated test compound diluted in water. The leaf segments were inoculated with a spore suspension of the fungus 2 days after application. The inoculated leaf segments were incubated at 20 °C and 65% rh under a light regime of 12 h light/12 h darkness in a climate cabinet and the activity of a compound was assessed as disease control compared to untreated when an appropriate level of disease damage appears in untreated check leaf segments (5-7 days after application).

[3] = system: several phytopathogenic fungi; assay: Liquid culture assays, summary over the fungi tested; assay type: cell-based; conditions: Tables 2 and 3; relative to the other compounds
Procedure: as §1, §2
The effect of the test compound (Formula I(a), I(b) and Lipopeptin A) was tested against the following fungi under the conditions as outlined above and specifically herein below: […]

several fungal species = assay: Leaf disc or leaf segment tests, summary over the fungi tested; assay type: in vivo; conditions: Tables 4 and 5; relative to the other compounds
Procedure: as §4

`O=C(O)c1cc(Cl)nc(Cl)c1` [INA, 2.6-dichloro-isonicotinic acid, reference compound] gave a fold induction at 100 ppm [1] of 1.8.
`CC[C@@H](C)CCCCCCCCCCC(=O)N[C@H]1C(=O)N[C@@H](CC(=O)O)C(=O)N[C@H](CO)C(=O)N[C@@H](CO)C(=O)N(C)[C@H](CC(N)=O)C(=O)N(C)[C@@H](Cc2ccccc2)C(=O)N[C@H]([C@H](O)CC(N)=O)C(=O)N[C@H](CCC(=O)O)C(=O)O[C@@H]1C` [Lipopeptin A, reference compound] (X3-[d(aThr)]D[dS]S[dNMeN][NMeF][X4][dE]; ester 1-C) was tested, and the “% reduction fungal growth” value (Botryotinia fuckeliana; 0.41 ppm) was 0%, the “% reduction fungal growth” value (Botryotinia fuckeliana; 1.2 ppm) was 0% and the “% reduction fungal growth” value (Botryotinia fuckeliana; 3.7 ppm) was 0%. The “% reduction fungal growth” value (Botryotinia fuckeliana; 11 ppm) was 0%, the “% reduction fungal growth” value (Botryotinia fuckeliana; 33 ppm) was 0% and the “% reduction fungal growth” value (Botryotinia fuckeliana; 100 ppm) was 0%. For the same compound, the “% reduction fungal growth” value (Glomerella lagenarium; 0.41 ppm) was 0%, the “% reduction fungal growth” value (Glomerella lagenarium; 1.2 ppm) was 0% and the “% reduction fungal growth” value (Glomerella lagenarium; 3.7 ppm) was 0%. For the same compound, the “% reduction fungal growth” value (Glomerella lagenarium; 11 ppm) was 0%, the “% reduction fungal growth” value (Glomerella lagenarium; 33 ppm) was 0% and the “% reduction fungal growth” value (Glomerella lagenarium; 100 ppm) was 0%. The “% reduction fungal growth” value (Mycosphaerella arachidis; 0.41 ppm) was 0%, the “% reduction fungal growth” value (Mycosphaerella arachidis; 1.2 ppm) was 0% and the “% reduction fungal growth” value (Mycosphaerella arachidis; 3.7 ppm) was 0%. For the same compound, the “% reduction fungal growth” value (Mycosphaerella arachidis; 11 ppm) was 0%, the “% reduction fungal growth” value (Mycosphaerella arachidis; 33 ppm) was 0% and the “% reduction fungal growth” value (Mycosphaerella arachidis; 100 ppm) was 0%. For the same compound, the “% reduction fungal growth” value (Zymoseptoria tritici; 0.41 ppm) was 0%, the “% reduction fungal growth” value (Zymoseptoria tritici; 1.2 ppm) was 0% and the “% reduction fungal growth” value (Zymoseptoria tritici; 3.7 ppm) was 0%. For the same compound, the “% reduction fungal growth” value (Zymoseptoria tritici; 11 ppm) was 0%, the “% reduction fungal growth” value (Zymoseptoria tritici; 33 ppm) was 0% and the “% reduction fungal growth” value (Zymoseptoria tritici; 100 ppm) was 70%. For the same compound, the “% reduction of fungal growth” value ([2]; 0.82 ppm) was 0%, the “% reduction of fungal growth” value ([2]; 2.5 ppm) was 0% and the “% reduction of fungal growth” value ([2]; 7.4 ppm) was 0%. For the same compound, the “% reduction of fungal growth” value ([2]; 22 ppm) was 0%, the “% reduction of fungal growth” value ([2]; 67 ppm) was 0% and the “% reduction of fungal growth” value ([2]; 200 ppm) was 35%. For the same compound, the “% reduction of fungal growth” value (Phaeosphaeria nodorum; 0.82 ppm) was 0%, the “% reduction of fungal growth” value (Phaeosphaeria nodorum; 2.5 ppm) was 0% and the “% reduction of fungal growth” value (Phaeosphaeria nodorum; 7.4 ppm) was 0%. The “% reduction of fungal growth” value (Phaeosphaeria nodorum; 22 ppm) was 0%, the “% reduction of fungal growth” value (Phaeosphaeria nodorum; 67 ppm) was 0% and the “% reduction of fungal growth” value (Phaeosphaeria nodorum; 200 ppm) was 0%. The “% reduction of fungal growth” value (Pyrenophora teres; 0.82 ppm) was 0%, the “% reduction of fungal growth” value (Pyrenophora teres; 2.5 ppm) was 0% and the “% reduction of fungal growth” value (Pyrenophora teres; 7.4 ppm) was 0%. The “% reduction of fungal growth” value (Pyrenophora teres; 22 ppm) was 0%, the “% reduction of fungal growth” value (Pyrenophora teres; 67 ppm) was 0% and the “% reduction of fungal growth” value (Pyrenophora teres; 200 ppm) was 0%. For the same compound, the “activity in liquid culture in words” value [3] was “less active” and the “activity on leaf discs in words” value (several fungal species) was “less active”.
